Test [1] concerns MAP kinases. Briefly: Measurement of activation of MAP kinases in cultured nerve cells (western immunoblotting). The format is cell-based. The following applies: fetal rat cerebral cortex nerve cells, compound 500 μg/ml, 30 minutes, relative to control. The protocol: Activation of MAP kinases was measured on respective compounds in Table 1 including the compound obtained in Production Example with western immunoblotting as follows. Nerve cells were dispersed from a cerebral cortex of a 17-day-old fetal rat and the nerve cells were cultured in a Dulbecco's modified eagle medium (DMEM) containing 5%; fetal bovine serum for 1 day. A culture solution was exchanged to a serum-free medium (B27 supplement added Neurobasal, Invitrogen Corporation), and the nerve cells were cultured in a culture petri dish coated with polyornithine at a density of 20,000 to 40,000 cells/cm^2. Three days later, each of the compounds in Table 1 was added thereto, and culture for 30 minutes was continued. Then, cells were recovered on ice with a solution of a Tris-HCL buffer as a base containing a phosphatase inhibitor. The protein concentration of the obtained cell extraction was determined using a BCA Protein Assay Kit (TAKARABIO INC.), a constant amount (3 μg for MAP kinase measurement, 5 μg for phosphorylated MAP kinase measurement) of the protein was electrophoresed with a polyacrylic amide gel. The protein was transcribed to a PVDF membrane from the gel after electrophoresis, and western immunoblotting was carried out using the primary antibodies: an anti-MAP kinase antibody (Cell Signaling Technology, Inc.) and an antiphosphorylated MAP kinase antibody (Cell Signaling Technology, Inc.), respectively. Subsequently, an enzyme activity was subjected to color development by being reacted with the secondary antibody: an alkaline phosphatase labeled anti-rabbit IgG antibody (Promega KK) to measure MAP kinases and phosphorylated MAP kinases. In addition, each compound was dissolved in 0.7% DMSO and adjusted to have a concentration of 500 μg/ml. A control was added with a phosphoric acid buffer containing 0.1% DMSO in the same amount as the compound.
The above obtained concentration measurement of the electrophoresis gel band was digitalized by calculating an intensity with Image J (BioArts International, Inc.). The numerical value of MAP kinases of each compound was divided by the numerical value of the control's MAP kinases, and the numerical value of phosphorylated MAP kinases of each compound was divided by the numerical value of the control's phosphorylated MAP kinases to find a ratio of the MAP kinases of each compound to the control and a ratio of the phosphorylated MAP kinases of the each compound to the control. Then, the obtained ratio of the phosphorylated MAP kinases to the control was divided by the obtained ratio of the MAP kinases to the control to find a ratio of the phosphorylated MAP kinases to the MAP kinases and graphs were formed and shown in FIGS. 1 to 3. Compound 1, compound 6, compound 11, compound 16, compound 21 and compound 36 in Table 1 were used from products made by Wako Pure Chemical Industries, Ltd.

The subject of test [2] is mice under chronic mild stress. Briefly: Elevated plus maze test, compound given at the same time as stress. The format is in vivo. The conditions noted are these: 20, 100 and 500 μg/kg intraperitoneally with stress, 3 week and 1 week groups. The procedure: Mice under established chronic mild stress (hereinafter referred to as “stress”) were used for a depression and anxiety disorder-like model animal. Stress was applied as follows. 7-week-old male ddY strain mice fed in one cage for 4 mice were used and first subjected to forced swimming for 15 minutes. Then, the mice were fed in a sloped cage for 2 days, and then rested in a normal cage for 1 day. Then, the mice were fed in a dirt cage moisturized with 200 mL of water for 1 day and then rested in a normal cage for 1 day. Then, the mice were fed in a rotational cage that rotated at 180 rpm for 1 day, and then rested in a normal cage for 1 day. […] For 0 μg/kg administration examples of controls, a phosphoric acid buffer containing 0.1% DMSO (controls were expressed as “PBS” or “0 μg/kg” in the figure shown below) was administered in an amount of 0.25 mL to each of a stressed example and a non-stressed example. […]
In this test, an anxiety level can be evaluated from the time for being the open arm, and a behavior amount can be evaluated from the number of times of entering the closed arm. From the evaluations, when a mouse has an anxiety symptom (condition), the time for being in the open arm […], and thus, a level of the anxiety symptom (condition) can be evaluated from the length of the time. […]

Turning to `CCCCCCC/C=C/C(=O)OCC` [Compound 8, trans-2-decenoic acid ethyl ester], the “ratio of phosphorylated MAP kinases to MAP kinases” value in test [1] was “twice or more”; in test [1] (listed as trans-2-decenic acid ethyl ester), 11 times. The “time for being in open arm, stressed vs non-stressed example” value in test [2] is given as “no significant difference”. The “number of times of entering closed arm (behavior amount)” value in test [2] (vs control (PBS) and stressed vs non-stressed) was “no significant difference”.

The values are drawn from patent publication US8557864B2, “Agent having neurotrophic factor-like activity” (Nagoya Industrial Science Research Institute, priority 2007, dated 2013).
